Earlier results, collected in patent US9090623B2, “Compound JK12A and preparation thereof” (LIANYUNGANG JINKANG HEXIN PHARMACEUTICAL CO., LTD., priority 2012, dated 2015).

Test system: HeLa S3 cells
Conditions: reported in Org. Lett. 2008, 10, 489-491; cited from earlier work

SMILES: COC(=O)c1ccc(N2CC3CNC(=O)C2(C(=O)OC)N3C)cc1 (stereo not shown) [Aplaminal]
- cytotoxicity against HeLa S3 cells IC50: 0.51 µg/mL
